In US8106055B2, “Substituted amide compounds” (Gruenenthal GmbH, priority 2007, dated 2012):

What was measured:
[1] = target: T1, bradykinin 1 receptor (B1R) of the rat (Rattus norvegicus, UniProt P97583); experiment: Functional investigation on the rat bradykinin 1 receptor (B1R), Ca2+ FLIPR assay in CHO K1 rB1R cells; type: cell-based; conditions: CHO-K1, B1R antagonism rat; test substance 10 μM; Ca2+ FLIPR, CHO K1 rB1R cells; read-out: B1R Ant. r [10 μM] % Inhibition
T1 construct: expressed in transfected cells; host or cells: CHO K1 cells
T1 sequence (P97583 1-337): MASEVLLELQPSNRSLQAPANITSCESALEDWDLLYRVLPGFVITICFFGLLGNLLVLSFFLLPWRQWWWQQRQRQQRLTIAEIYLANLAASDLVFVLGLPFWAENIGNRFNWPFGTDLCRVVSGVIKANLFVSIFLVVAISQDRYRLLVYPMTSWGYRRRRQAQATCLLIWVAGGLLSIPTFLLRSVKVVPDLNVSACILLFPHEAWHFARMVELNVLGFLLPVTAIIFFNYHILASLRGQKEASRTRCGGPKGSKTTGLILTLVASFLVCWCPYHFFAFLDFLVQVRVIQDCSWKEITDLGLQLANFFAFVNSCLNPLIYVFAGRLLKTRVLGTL
In short: (§1)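 Fluo-4 Ca2+ readout, peak fluorescence. Stable CHO K1 transfectants; compound pre-incubated 10-20 min, then EC80 agonist—Lys-Des-Arg9-BK for hB1R, Des-Arg9-BK for rB1R. % inhibition vs maximal inhibition; IC50 from multiple concentrations, duplicate/triplicate, ≥2 independent runs.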

[2] = target: T2, human bradykinin 1 receptor (B1R) (Homo sapiens, UniProt P46663); experiment: Functional investigation on the human bradykinin 1 receptor (B1R), Ca2+ FLIPR assay in CHO K1 hB1R cells; type: cell-based; conditions: CHO-K1, B1R antagonism human; test substance 10 μM; Ca2+ FLIPR, CHO K1 hB1R cells; read-out: B1R Ant. h [10 μM] % Inhibition
T2 construct: expressed in transfected cells; host or cells: CHO K1 cells
T2 sequence (P46663 1-353): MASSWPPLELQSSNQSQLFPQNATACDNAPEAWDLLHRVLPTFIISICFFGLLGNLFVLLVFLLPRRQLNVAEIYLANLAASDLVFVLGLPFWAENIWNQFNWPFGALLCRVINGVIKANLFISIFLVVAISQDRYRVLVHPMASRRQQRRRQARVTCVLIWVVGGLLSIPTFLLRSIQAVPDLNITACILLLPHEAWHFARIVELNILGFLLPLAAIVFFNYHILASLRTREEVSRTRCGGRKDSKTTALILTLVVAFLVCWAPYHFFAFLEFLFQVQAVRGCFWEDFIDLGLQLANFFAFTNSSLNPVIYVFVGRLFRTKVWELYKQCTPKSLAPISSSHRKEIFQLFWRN
In short: as §1

human μ opiate receptor = target: T3, human μ opiate receptor (Homo sapiens, UniProt P35372); experiment: Affinity for the human μ opiate receptor ([3H]-naloxone displacement, CHO-K1 receptor membrane preparation, SPA); type: binding; conditions: 1.5 h, Table 3, to be read in the same way as Table 1; test concentration 1 μM; read-out: μ
T3 construct: purchased PerkinElmer Life Sciences, Zaventem, Belgium RB-HOM; host or cells: CHO-K1 cells (membrane preparation)
In short: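 Displacement of 1 nmol/l [3H]-naloxone measured by SPA counting after 90 min at room temperature, using human μ receptor CHO-K1 membrane preparation in Tris-HCl buffer with 0.06% BSA. Test substances at 1 μmol/l give % inhibition; dilution series yield IC50, then Ki (Cheng-Prusoff); non-specific binding with 100 μmol/l naloxone.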

T3 sequence (P35372 whole entry): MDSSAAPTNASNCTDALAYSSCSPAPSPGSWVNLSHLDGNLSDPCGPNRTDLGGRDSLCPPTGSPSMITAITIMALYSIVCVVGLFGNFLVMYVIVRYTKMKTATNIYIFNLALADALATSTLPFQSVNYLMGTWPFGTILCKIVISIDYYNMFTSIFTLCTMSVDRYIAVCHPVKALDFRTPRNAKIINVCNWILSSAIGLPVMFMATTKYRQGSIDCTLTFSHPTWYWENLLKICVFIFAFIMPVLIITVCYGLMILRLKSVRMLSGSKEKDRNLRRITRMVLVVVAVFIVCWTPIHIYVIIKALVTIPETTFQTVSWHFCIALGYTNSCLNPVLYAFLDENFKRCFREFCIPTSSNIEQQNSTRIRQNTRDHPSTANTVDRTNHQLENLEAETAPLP

SMILES	inhibition at 10 µM [1] [%]	inhibition at 10 µM [2] [%]	inhibition at 1 µM (human μ opiate receptor) [%]
O=C(COCC1CCCN(S(=O)(=O)c2c(Cl)cc(Cl)cc2Cl)C1)NC1CCC(C(CCc2ccccc2)N2CCOCC2)CC1 (stereo not drawn) [Example 741, N-(4-(1-morpholino-3-phenylpropyl)cyclohexyl)-2-((1-(2,4,6-trichlorophenylsulfonyl)piperidin-3-yl)methoxy)acetamide]	46	-5	16
CN1CCN(C(c2ccccc2)C2CCC(NC(=O)COCC3CCCN(S(=O)(=O)c4c(Cl)cc(Cl)cc4Cl)C3)CC2)CC1 (stereo not drawn) [Example 742, N-(4-((4-methylpiperazin-1-yl)(phenyl)methyl)cyclohexyl)-2-((1-(2,4,6-trichlorophenylsulfonyl)piperidin-3-yl)methoxy)acetamide]	53	36	29
O=C(COC1CCN(S(=O)(=O)c2c(Cl)cc(Cl)cc2Cl)C1)NCC1CCC(C(c2ccccc2)N2CCOCC2)CC1 (stereo not drawn) [Example 743, N-((4-(morpholino(phenyl)methyl)cyclohexyl)methyl)-2-(1-(2,4,6-trichlorophenylsulfonyl)pyrrolidin-3-yloxy)acetamide]	10	-3	8
COc1cc(C)c(S(=O)(=O)N2CCCC(COCC(=O)NCC3CCC(C(c4ccccc4)N4CCOCC4)CC3)C2)c(C)c1 (stereo not drawn) [Example 744, 2-((1-(4-methoxy-2,6-dimethylphenylsulfonyl)piperidin-3-yl)methoxy)-N-((4-(morpholino(phenyl)methyl)cyclohexyl)methyl)acetamide]	40	18	13
O=C(COC1CCN(S(=O)(=O)c2c(Cl)cc(Cl)cc2Cl)C1)NCC1CCC(C(CCc2ccccc2)N2CCOCC2)CC1 (stereo not drawn) [Example 745, N-((4-(1-morpholino-3-phenylpropyl)cyclohexyl)methyl)-2-(1-(2,4,6-trichlorophenylsulfonyl)pyrrolidin-3-yloxy)acetamide]	44	45	8
CN(CCOCC(=O)NCC1CCC(C(CCc2ccccc2)N2CCCC2)CC1)S(=O)(=O)c1c(Cl)cc(C(F)(F)F)cc1Cl (stereo not drawn) [Example 746, 2-(2-(2,6-dichloro-N-methyl-4-(trifluoromethyl)phenylsulfonamido)ethoxy)-N-((4-(3-phenyl-1-(pyrrolidin-1-yl)propyl)cyclohexyl)methyl)acetamide]	51	98	8
O=C(COC1CCCN(S(=O)(=O)c2c(Cl)cc(Cl)cc2Cl)C1)NCC1CCC(C(CCc2ccccc2)N2CCOCC2)CC1 (stereo not drawn) [Example 747, N-((4-(1-morpholino-3-phenylpropyl)cyclohexyl)methyl)-2-(1-(2,4,6-trichlorophenylsulfonyl)piperidin-3-yloxy)acetamide]	32	24	23
COc1cc(C)c(S(=O)(=O)N2CCCC(OCC(=O)NCC3CCC(C(CCc4ccccc4)N4CCOCC4)CC3)C2)c(C)c1 (stereo not drawn) [Example 748, 2-(1-(4-methoxy-2,6-dimethylphenylsulfonyl)piperidin-3-yloxy)-N-((4-(1-morpholino-3-phenylpropyl)cyclohexyl)methyl)acetamide]	78	92	20
COc1cc(C)c(S(=O)(=O)N2CCCC2COCC(=O)NCC2CCC(C(CCc3ccccc3)N3CCOCC3)CC2)c(C)c1 (stereo not drawn) [Example 749, 2-((1-(4-methoxy-2,6-dimethylphenylsulfonyl)pyrrolidin-2-yl)methoxy)-N-((4-(1-morpholino-3-phenylpropyl)cyclohexyl)methyl)acetamide]	109	103	12
COc1cc(C)c(S(=O)(=O)N2CCCC2COCC(=O)NCC2CCC(C(CCc3ccccc3)N3CCCC3)CC2)c(C)c1 (stereo not drawn) [Example 750, 2-((1-(4-methoxy-2,6-dimethylphenylsulfonyl)pyrrolidin-2-yl)methoxy)-N-((4-(3-phenyl-1-(pyrrolidin-1-yl)propyl)cyclohexyl)methyl)acetamide]	94	101	52
O=C(COCC1CCCN1S(=O)(=O)c1c(Cl)cc(Cl)cc1Cl)NCC1CCC(C(CCc2ccccc2)N2CCOCC2)CC1 (stereo not drawn) [Example 751, N-((4-(1-morpholino-3-phenylpropyl)cyclohexyl)methyl)-2-((1-(2,4,6-trichlorophenylsulfonyl)pyrrolidin-2-yl)methoxy)acetamide]	73	45	32
O=C(COCC1CCCN1S(=O)(=O)c1c(Cl)cc(Cl)cc1Cl)NCC1CCC(C(CCc2ccccc2)N2CCCC2)CC1 (stereo not drawn) [Example 752, N-((4-(3-phenyl-1-(pyrrolidin-1-yl)propyl)cyclohexyl)methyl)-2-((1-(2,4,6-trichlorophenylsulfonyl)pyrrolidin-2-yl)methoxy)acetamide]	104	103	82
COc1cc(C)c(S(=O)(=O)N2CCCCC2COCC(=O)NCC2CCC(C(CCc3ccccc3)N3CCOCC3)CC2)c(C)c1 (stereo not drawn) [Example 753, 2-((1-(4-methoxy-2,6-dimethylphenylsulfonyl)piperidin-2-yl)methoxy)-N-((4-(1-morpholino-3-phenylpropyl)cyclohexyl)methyl)acetamide]	103	104	17
O=C(COCC1CCCCN1S(=O)(=O)c1c(Cl)cc(Cl)cc1Cl)NCC1CCC(C(CCc2ccccc2)N2CCOCC2)CC1 (stereo not drawn) [Example 754, N-((4-(1-morpholino-3-phenylpropyl)cyclohexyl)methyl)-2-((1-(2,4,6-trichlorophenylsulfonyl)piperidin-2-yl)methoxy)acetamide]	76	47	2
O=C(COCC1CCCCN1S(=O)(=O)c1c(Cl)cc(Cl)cc1Cl)NCC1CCC(C(CCc2ccccc2)N2CCCC2)CC1 (stereo not drawn) [Example 755, N-((4-(3-phenyl-1-(pyrrolidin-1-yl)propyl)cyclohexyl)methyl)-2-((1-(2,4,6-trichlorophenylsulfonyl)piperidin-2-yl)methoxy)acetamide]	102	103	62
COc1cc(C)c(S(=O)(=O)N2CCCC(COCC(=O)NCC3CCC(C(CCc4ccccc4)N4CCOCC4)CC3)C2)c(C)c1 (stereo not drawn) [Example 756, 2-((1-(4-methoxy-2,6-dimethylphenylsulfonyl)piperidin-3-yl)methoxy)-N-((4-(1-morpholino-3-phenylpropyl)cyclohexyl)methyl)acetamide]	43	64	5
COc1cc(C)c(S(=O)(=O)N2CCCC(COCC(=O)NCC3CCC(C(CCc4ccccc4)N4CCCC4)CC3)C2)c(C)c1 (stereo not drawn) [Example 757, 2-((1-(4-methoxy-2,6-dimethylphenylsulfonyl)piperidin-3-yl)methoxy)-N-((4-(3-phenyl-1-(pyrrolidin-1-yl)propyl)cyclohexyl)methyl)acetamide]	100	103	32
O=C(COCC1CCCN(S(=O)(=O)c2c(Cl)cc(Cl)cc2Cl)C1)NCC1CCC(C(CCc2ccccc2)N2CCOCC2)CC1 (stereo not drawn) [Example 758, N-((4-(1-morpholino-3-phenylpropyl)cyclohexyl)methyl)-2-((1-(2,4,6-trichlorophenylsulfonyl)piperidin-3-yl)methoxy)acetamide]	107	41	25
O=C(COCC1CCCN(S(=O)(=O)c2c(Cl)cc(Cl)cc2Cl)C1)NCC1CCC(C(CCc2ccccc2)N2CCCC2)CC1 (stereo not drawn) [Example 759, N-((4-(3-phenyl-1-(pyrrolidin-1-yl)propyl)cyclohexyl)methyl)-2-((1-(2,4,6-trichlorophenylsulfonyl)piperidin-3-yl)methoxy)acetamide]	56	100	87
